Key:
Kir6.2 channel [1] = target: T1, Kir6.2 channel (Mus musculus, UniProt Q61743); assay: Patch-clamp measurement of outward potassium current in Kir6.2 channel-overexpressing cells; assay type: cell-based; settings: 10 nM TP-014, Kir6.2 channel-overexpressing cells, membrane potential changed toward a plus side
T1 construct: expressed in transfected cells; host or cells: Neuro2A (N2A) cells, transient transfection with pcDNA3.1-Kir6.2 (gift of Dr. Toru Ishizuka, Tohoku University)
T1 sequence (Q61743 1-390): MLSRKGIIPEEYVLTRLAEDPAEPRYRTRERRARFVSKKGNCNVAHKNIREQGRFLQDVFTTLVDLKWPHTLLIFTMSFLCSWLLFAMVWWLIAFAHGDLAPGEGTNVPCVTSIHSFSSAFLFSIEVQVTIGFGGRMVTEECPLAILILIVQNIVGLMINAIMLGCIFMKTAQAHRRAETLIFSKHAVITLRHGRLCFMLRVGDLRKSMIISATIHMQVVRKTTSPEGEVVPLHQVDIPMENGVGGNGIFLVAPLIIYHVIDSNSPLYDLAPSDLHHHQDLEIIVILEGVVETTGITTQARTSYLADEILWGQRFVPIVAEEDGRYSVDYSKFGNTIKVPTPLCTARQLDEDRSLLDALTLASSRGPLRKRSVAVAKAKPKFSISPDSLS
Description: Using Kir6.2 channel-overexpressing cells obtained in Test Example 1, potassium current flowing outside from the cells was measured by an ordinary patch-clamp method. ATP-sensitive potassium channel (Kir6.2 channel) was localized in the cell membrane of the nerve cells. If the channel is inhibited and closed, the threshold of the nerve cell membrane rises to produce a state analogous to the state where an action potential is temporarily generated, with the result that potassium current flows out from cells outside and, in place, calcium current flows into the cells from outside. […] This was confirmed by applying immunoblotting (the same conditions as in Test Example 1 were employed except that anti-Kir6.2 channel antibody, n=5) with an anti-Kir6.2 channel antibody (prepared based on a customary method) to Kir6.2 channel-overexpressing cells (prepared by the aforementioned method).

APP23 mice [2] = assay: Immunoblotting of hippocampus for phosphorylation of CaMKII, CaMKIV and ERK; assay type: in vivo; settings: APP23 mice chronically treated, conditions as Test Example 4
Description: The hippocampus of APP23 mouse was excised out. To hippocampal slices, an SDS sample buffer was added to prepare a suspension, which was subjected to immunoblotting using antibodies against CaMKII, CaMKIV and ERK (CaMKII: Fukunaga et al., J. Biol. Chem. 1992, 267, 22527-22533, CaMKIV: Kasahara et al., J. Biol. Chem. 2001, 276, 24044-24050, ERK: manufactured by Sigma-Aldrich). In this manner, phosphorylation of the individual proteins was analyzed. CaMKII, CaMKIV and ERK are molecules all considered to play an important role in memory formation. As a result, it was observed that phosphorylation of CaMKII decreases in ordinary APP23 mice; whereas, in APP23 mice chronically treated with TP-014 (the treatment conditions are the same as in the case of Test Example 4), phosphorylation of CaMKII is accelerated.
GluA1 (Ser-831), Synapsin I (Ser-603) and CREB (Ser-133), which are molecules known to be activated if CaMKII is activated. These molecules were analyzed by immunoblotting of hippocampal slice sections suspended in an SDS sample buffer. Antibodies against the individual molecules were obtained from Millipore. It is shown that activation of GluA1 (Ser-831) and CREB (Ser-133) is induced by activation of CaMKII. FIG. 5a and FIG. 5c show bands (image) actually obtained by electrophoresis of immunoblots.

[3] = system: olfactory bulbectomized mice (OBX mice); assay: Cognitive function tests (Y-maze, new object recognition, fear conditioning, LTP) in olfactory bulbectomized mice; assay type: in vivo; settings: chronic administration (2 weeks)
Kir6.2 defective mice = assay: Immunoblotting of hippocampus for CaMKII activation in Kir6.2 defective mice; assay type: in vivo; settings: chronic treatment
Description: Activation of CaMKII was investigated in the same manner as in FIGS. 4 to 7. In addition, GluA1 (Ser-831), which is known as a molecule activated by activation of CaMKII, was investigated. Hippocampal slices were suspended in an SDS sample buffer to prepare a suspension, which was subjected to immunoblotting. In this way, the intracellular mechanism of cognitive dysfunction in Kir6.2 defective mice was analyzed. The results are shown in FIG. 9 (FIG. 9a: band images by immunoblotting, FIG. 9b: quantification results of signal intensities of bands). In the hippocampus of Kir6.2 defective mice, activation of CaMKII was accelerated. Even in the case of chronic treatment with TP-014, no influence was observed.

APP23 mice [4] = assay: Fear conditioning test in Alzheimer's disease model mice; assay type: in vivo; settings: APP23 mice treated for two months
From the text: The fear conditioning test method is an analysis taking an advantage of mouse's preposition in favor of a dark place rather than a bright place. Day 1, a mouse is placed in a bright place. Since a mouse is fond of a dark place, the mouse enters a dark place (dark box). When an electrical stimulation is given to the mouse at this time, the mouse is surprised and returns to the bright place and never enters the dark place. Day 2, the mouse is placed in the bright place (the same place as on Day 1), and then, whether the mouse enters a dark place or not is observed for 5 minutes. If the mouse enters the dark place right away, it is determined that fear memory of the mouse declined. “Latency” is a time period (seconds) until the mouse placed in a bright place enters the dark plate (darkroom) on Day 2.

Kir6.2 channel [5] = target: T1, Kir6.2 channel; assay: Calcium imaging method (Fura2) in Kir6.2 channel-overexpressing cells; assay type: cell-based
Description: Using the same Kir6.2 channel-overexpressing cells as in Test Example 1, the amount of calcium that flows into cells from outside the cells by TP-014 treatment was measured by a calcium imaging method. The calcium imaging method is a method of measuring the amount of calcium based on the intensity of fluorescence of cultured nerve cells, which are treated in a culture solution containing a calcium fluorescent dye (Fura2, manufactured by Dojindo Laboratories) in a concentration of 4 μM. Imaging was carried out by an imaging apparatus (LAMBDA10-2, manufactured by SUTTER INSTRUMENT) in accordance with the manual attached to the apparatus.

## O=C(N[C@@H](c1ccccc1)[C@H]1[C@H]2C[C@@H]3C[C@](Cl)(C2)C[C@@]1(OC(=O)C(F)(F)F)C3)C(F)(F)F [TP-014, (1S,2R,3S,5S,7S)-5-chloro-2-((R)-phenyl(2,2,2-trifluoroacetamido)methyl)adamantan-1-yl 2,2,2-trifluoroacetate]
Kir6.2 channel [1]
  outward potassium current: suppressed
APP23 mice [2]
  phosphorylation of CaMKII in hippocampus: accelerated
[3]
  cognitive dysfunction of OBX mice: significantly improved
Kir6.2 defective mice
  activation of CaMKII in hippocampus of Kir6.2 defective mice: no influence
APP23 mice [4]
  fear memory (latency, fear conditioning test): improvement effect
Kir6.2 channel [5]; TP-014 1-100 nM vs memantine 100 nM
  calcium concentration increasing effect compared with memantine: larger calcium concentration increasing effect than memantine
Kir6.2 channel [5]; TP-014 1-100 nM, 4 minutes after treatment, Kir6.2 channel-overexpressing cells
  amount of calcium within cells: significantly increased

From US10487045B2, “Adamantane derivative and use thereof” (TOHOKU UNIVERSITY, priority 2016, dated 2019)
